The results in this text go back to patent US20250115609A1, “AROMATIC HETEROCYCLIC COMPOUNDS, PREPARATION METHOD THEREFOR AND USES THEREOF” (Innovstone Therapeutics Limited, priority 2021, published 2025).

As a reminder, the EC50 is the midpoint of the concentration-response curve. A high value points to a less potent agent. As usually defined, the Cmax is the highest concentration seen after dosing. For orientation: Tmax means the time from dosing to the highest level. By IC50 is commonly meant the concentration at which inhibition is half-maximal. A lower IC50 goes with greater potency in that assay.

For series [1], the target named is ENPP1 in cultured MDA-MB-231 cells (Homo sapiens (Human), UniProt P22413). Put plainly: ENPP1 enzymatic inhibition in cellular assay (MDA-MB-231 cells, TMP-pNP). The class given is cell-based. Particulars: ENPP1 enzymatic inhibition activity at the cellular level. As to the method: ENPP1 was mainly expressed on the surface of cell membranes and could hydrolyze 2′3′-cGAMP into 5′-GMP and 5′-AMP. Similarly, ENPP1 could also hydrolyze the synthetic phosphate TMP-pNP, generating nucleotide-5′-monophosphate and the chromogenic product p-nitrophenol. Therefore, TMP-pNP was used as a substrate to reflect the enzyme activity of ENPP1 in cultured MDA-MB-231 cells. The amount of p-nitrophenol formed in the culture medium was determined by absorbance at 405 nim, which was directly proportional to the activity of ENPP1.
Sequence of ENPP1 in cultured MDA-MB-231 cells (P22413 whole entry): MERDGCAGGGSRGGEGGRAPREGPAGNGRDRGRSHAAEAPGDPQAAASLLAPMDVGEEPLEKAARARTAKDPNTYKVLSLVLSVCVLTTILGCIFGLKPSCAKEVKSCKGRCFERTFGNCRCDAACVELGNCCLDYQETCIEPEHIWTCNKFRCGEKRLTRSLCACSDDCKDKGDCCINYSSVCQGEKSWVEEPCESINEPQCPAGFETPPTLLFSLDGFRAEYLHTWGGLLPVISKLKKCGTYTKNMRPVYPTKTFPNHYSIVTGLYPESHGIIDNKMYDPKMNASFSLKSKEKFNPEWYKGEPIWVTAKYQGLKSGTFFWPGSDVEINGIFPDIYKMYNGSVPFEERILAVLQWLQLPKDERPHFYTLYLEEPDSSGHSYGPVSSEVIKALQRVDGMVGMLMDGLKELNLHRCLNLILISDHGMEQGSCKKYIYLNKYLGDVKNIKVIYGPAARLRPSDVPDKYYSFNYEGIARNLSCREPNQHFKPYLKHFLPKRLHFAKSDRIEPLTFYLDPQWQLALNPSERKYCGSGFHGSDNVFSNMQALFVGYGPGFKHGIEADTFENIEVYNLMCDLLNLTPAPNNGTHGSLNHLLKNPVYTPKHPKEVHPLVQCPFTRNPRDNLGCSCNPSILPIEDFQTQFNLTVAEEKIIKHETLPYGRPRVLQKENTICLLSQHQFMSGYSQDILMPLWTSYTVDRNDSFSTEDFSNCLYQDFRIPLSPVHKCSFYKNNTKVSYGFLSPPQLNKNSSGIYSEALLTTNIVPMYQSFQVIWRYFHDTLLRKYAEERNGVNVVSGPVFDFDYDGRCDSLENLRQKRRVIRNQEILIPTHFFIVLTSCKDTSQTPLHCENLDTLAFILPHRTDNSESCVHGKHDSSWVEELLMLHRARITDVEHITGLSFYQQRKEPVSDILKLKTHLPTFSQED
MDA-MB-231 cells was seeded with a density of 6000 per well in 384-well plate and cultured overnight (about 18 hrs) at 37° C. The compound was diluted into a 50× serial gradient dilution using an assay buffer (250 mM NaCl, 50 mM Tris, pH=9.5), starting at 500 μM, and diluted in a 4-fold serial gradient to make 10 concentration points. The cell culture medium was removed, and 10 μL of gradient concentrations of compounds were added to each well of the 384-well assay plate (final concentration: starting at 10 μM, 4-fold serial gradient dilution, with 10 concentration points). Then, 10 μL of 1 mM TMP-pNP (2× final concentration) dissolved in the assay buffer was added to the well. After incubating at 37° C. for 3 hrs, the OD405 nm value was read by the microplate reader. The percentage inhibition was calculated using the formula: % Inhibition Rate=(ODhigh signal control−ODsample well)/(ODhigh signal control−ODlow signal control)*100. The IC50 value was calculated using four-parameter fit. The high signal control was the DMSO group without inhibitors, and the low signal control was the blank control group.

The nature of series [2]: Pharmacokinetics in mice, compound concentration by LC-MS/MS. The class given is in vivo, CD-1 male mice.
The target in series [3] is hENPP1 enzyme (Homo sapiens (Human), UniProt P22413). The series can be described thus: ENPP1 enzymatic inhibition in biochemical assay (TMP-pNP hydrolysis, OD405). Particulars: ENPP1 enzymatic inhibition activity, TMP-pNP substrate, pH 9.5. From the text: ENPP1 was a transmembrane glycoprotein capable of hydrolyzing nucleotides and derivatives with a nucleotide-5′-monophosphate structure. ENPP1 was capable of hydrolyzing artificial thymidine 5′-monophosphate p-nitrophenyl ester (TMP-pNP) into nucleotide 5′-monophosphate and p-nitrophenol which was a chromogenic product. The formation amount of p-nitrophenol product could be directly measured by its absorbance at 405 nm, which was directly proportional to the enzyme activity.
Sequence of hENPP1 enzyme (P22413 whole entry): as above
The compound was dissolved in DMSO, with stock concentration of 1 mM, and diluted in a 4-fold serial gradient to make 10 concentration points. Echo was used to transfer 300 nL of gradient concentrations of compound to a 384-well assay plate (final concentration: starting at 10 μM, 4-fold serial gradient dilution, 10 concentration points). First, 15 μL of 0.2 ng/uL hENPP1 enzyme (2× final concentration) prepared in assay buffer (250 mM NaCl, 50 mM Tris, pH=9.5) was added to each well. Then, 15 μL of 400 μM TMP-pNP (2× final concentration) diluted in assay buffer was added. After incubating at 37° C. for 0.5 hrs, the OD405 nm value was read by the microplate reader. The percentage inhibition was calculated using the formula: % Inhibition Rate=(ODhigh signal control−ODsample well)/(ODhigh signal control−ODlow signal control)*100. The IC50 value was calculated using four-parameter fit. The high signal control was the DMSO group without inhibitors, and the low signal control was the blank control group.

With `COc1ccc2c(ncc3c2n(Cc2c(F)cc(S(N)(=O)=O)cc2F)c(=O)n3CC(F)(F)F)n1` [ZX-131, reference compound], the EC50 in series [1] lay in the range of 0.5 to 2 nM. In series [2] (IV, 2 mpk), this compound came in with an AUC0-24 h of 4419 ng·h/mL, a CL of 7.2 mL/min/kg, a T1/2 of 6.01 h and a VSS of 3.212 L/kg. Also, in series [2] (PO, 10 mpk), the AUC0-24 h stood at 3274 ng·h/mL, the Cmax came to 247 ng/mL, the T1/2 stood at 7.78 h and the Tmax turned out to be 6 h. Further, the F % in series [2] (PO, 10 mpk vs IV, 2 mpk) amounted to 15%. The compound also showed a concentration for half-maximal inhibition (IC50) in series [3] of 0.1 to 0.2 nM.
